# In article PMC9403976, “Elucidating the path to Plasmodium prolyl-tRNA synthetase inhibitors that overcome halofuginone resistance” (Nature Communications, 2022):
# Where “and” joins values, the source holds several entries; their conditions need not be identical. Equal values may be shown once. Read-outs that look alike come from different tables or passages of the source.
# Legend:
# [1] = test system: halofuginone-induced P. falciparum (elevated proline homeostasis); experiment: P. falciparum ABS growth assay, SYBR Green, 72 h, halofuginone-induced parasites; type: cell-based, Plasmodium falciparum; conditions: for parasite growth, dose-response point: Halofuginone-Induced (HFG-Induced)
# Method in brief: (§1)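 Asexual blood-stage Dd2 parasites, 1% parasitemia/1% hematocrit, RPMI + 0.5% Albumax; triplicate dose-response, 72 h. Readout SYBR Green 1 fluorescence. Controls: 10 μM dihydroartemisinin (kill), no compound (growth). EC50 values determined.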
# [2] = test system: HFGR-I P. falciparum (elevated proline homeostasis and PfcProRS^L482H); experiment: P. falciparum ABS growth assay, SYBR Green, 72 h, HFGR-I parasites; type: cell-based, Plasmodium falciparum; conditions: HFGR-I
# Method in brief: as §1
# [3] = test system: P. falciparum Dd2-2D4; experiment: P. falciparum asexual blood stage (ABS) growth assay, SYBR Green, 72 h, wild-type parasites; type: cell-based, Plasmodium falciparum; conditions: Plasmodium falciparum, DD2; SI Fig 16b; values on -log scale; read-out: ABS - Dd2-2D4 (converted)
# [4] = target: HsProRS (Homo sapiens, UniProt P07814); experiment: TR-FRET ligand displacement assay with tracer MAT379 (CoraFluor-1-Halo and anti-His6 antibody formats); type: binding; set-up: made in house; host or cells: E. coli SoluBL-21; conditions: for normalized TR-FRET signal (dose-response replicates): SI Fig 17a
# [5] = target: T1, PfcProRS (Plasmodium falciparum, UniProt Q8I5R7); type: binding; conditions: for Normalized response, dose-response replicates (SI Fig 14): replicates 1-3, listed as MAT345 (30)
# T1 construct: made in house; host or cells: E. coli SoluBL-21
# [6] = Log[inhibitor] (M) -5.000, series r16-r27
# T1 sequence (Q8I5R7 249-746): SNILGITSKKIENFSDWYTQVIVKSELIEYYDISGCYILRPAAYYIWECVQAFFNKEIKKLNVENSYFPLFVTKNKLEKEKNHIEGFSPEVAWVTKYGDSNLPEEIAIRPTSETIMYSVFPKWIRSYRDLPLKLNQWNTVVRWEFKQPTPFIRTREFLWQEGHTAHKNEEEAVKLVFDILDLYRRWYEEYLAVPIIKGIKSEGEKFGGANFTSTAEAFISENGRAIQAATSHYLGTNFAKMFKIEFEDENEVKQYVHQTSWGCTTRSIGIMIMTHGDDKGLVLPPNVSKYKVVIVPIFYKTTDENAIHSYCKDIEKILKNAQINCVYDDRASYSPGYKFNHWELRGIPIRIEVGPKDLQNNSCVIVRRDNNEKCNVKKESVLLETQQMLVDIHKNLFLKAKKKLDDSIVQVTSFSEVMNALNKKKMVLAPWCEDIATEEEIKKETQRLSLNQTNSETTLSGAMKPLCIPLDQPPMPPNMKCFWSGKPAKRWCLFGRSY
# Sequence of HsProRS (P07814 996-1512): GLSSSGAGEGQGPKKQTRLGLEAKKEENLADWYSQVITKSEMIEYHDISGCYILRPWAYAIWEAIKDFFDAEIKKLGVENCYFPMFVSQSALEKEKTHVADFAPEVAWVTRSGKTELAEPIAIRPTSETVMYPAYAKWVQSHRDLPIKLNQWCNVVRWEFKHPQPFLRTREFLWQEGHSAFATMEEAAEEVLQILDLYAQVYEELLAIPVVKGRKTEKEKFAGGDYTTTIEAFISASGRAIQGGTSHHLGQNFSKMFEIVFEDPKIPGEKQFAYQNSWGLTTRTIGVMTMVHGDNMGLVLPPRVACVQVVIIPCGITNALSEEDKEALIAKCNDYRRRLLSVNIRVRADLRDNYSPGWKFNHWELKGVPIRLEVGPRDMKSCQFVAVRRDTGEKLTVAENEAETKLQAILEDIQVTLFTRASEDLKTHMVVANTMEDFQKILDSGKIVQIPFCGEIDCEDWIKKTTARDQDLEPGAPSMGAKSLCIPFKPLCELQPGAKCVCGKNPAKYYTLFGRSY
structure (smiles),measurement,setting,value
O=C(NC1Cc2ccccc2C1)c1nccnc1NC(=O)N1CCC(CNC(=O)[C@@H]2CCCN2)CC1 [MAT345],"parasite growth, dose-response point",[1]; [6],31 and 33
same,"parasite growth, dose-response point",[1]; Log[inhibitor] (M) -5.408,83 and 82 and 78
same,"parasite growth, dose-response point",[1]; Log[inhibitor] (M) -5.816,97 and 93 and 100
same,"parasite growth, dose-response point",[1]; Log[inhibitor] (M) -6.222,102 and 100
same,"parasite growth, dose-response point",[1]; Log[inhibitor] (M) -6.638,103 and 100 and 98
same,"parasite growth, dose-response point",[1]; Log[inhibitor] (M) -7.046,102 and 103
same,"parasite growth, dose-response point",[1]; Log[inhibitor] (M) -7.450,91 and 97
same,"parasite growth, dose-response point",[1]; Log[inhibitor] (M) -7.854,96 and 99
same,"parasite growth, dose-response point",[1]; Log[inhibitor] (M) -8.260,97 and 101
same,"parasite growth, dose-response point",[1]; Log[inhibitor] (M) -8.699,95 and 97 and 96
same,"parasite growth, dose-response point",[1]; Log[inhibitor] (M) -9.000,98 and 96
same,"parasite growth, dose-response point",[1]; Log[inhibitor] (M) -9.488,97 and 99
same,fold decreased activity in halofuginone-induced and HFGR-I parasites,[1]; vs wild-type Dd2-2D4,20-to-40 fold
same,"parasite growth, dose-response point",[2]; [6],34 and 31 and 27
same,"parasite growth, dose-response point",[2]; Log[inhibitor] (M) -5.408,80 and 82 and 78
same,"parasite growth, dose-response point",[2]; Log[inhibitor] (M) -5.816,93 and 92 and 94
same,"parasite growth, dose-response point",[2]; Log[inhibitor] (M) -6.222,97 and 95
same,"parasite growth, dose-response point",[2]; Log[inhibitor] (M) -6.638,101 and 98 and 100
same,"parasite growth, dose-response point",[2]; Log[inhibitor] (M) -7.046,98 and 100
same,"parasite growth, dose-response point",[2]; Log[inhibitor] (M) -7.450,89 and 95 and 94
same,"parasite growth, dose-response point",[2]; Log[inhibitor] (M) -7.854,93 and 91 and 94
same,"parasite growth, dose-response point",[2]; Log[inhibitor] (M) -8.260,90 and 93 and 96
same,"parasite growth, dose-response point",[2]; Log[inhibitor] (M) -8.699,97 and 94 and 92
same,"parasite growth, dose-response point",[2]; Log[inhibitor] (M) -9.000,97 and 96 and 95
same,"parasite growth, dose-response point",[2]; Log[inhibitor] (M) -9.488,95 and 102 and 96
same,EC50,[3],249 nM
same,Kd,"[4]; HsProRS (KD [nM]) + proline, 100 μM proline, 250 nM MAT379",282 nM
same,Kd,"[4]; HsProRS - best Kd, SI Fig 16a, values on -log scale",140 nM
same,"normalised signal, dose-response point (Fig 4d)",[4]; Log[inhibitor] (M) -5.642,3.24E-02 and 2.70E-02 and 2.05E-02
same,"normalised signal, dose-response point (Fig 4d)",[4]; Log[inhibitor] (M) -6.244,1.89E-01 and 2.26E-01 and 2.85E-01
same,"normalised signal, dose-response point (Fig 4d)",[4]; Log[inhibitor] (M) -6.555,3.68E-01 and 3.01E-01 and 3.10E-01
same,"normalised signal, dose-response point (Fig 4d)",[4]; Log[inhibitor] (M) -6.837,6.02E-01 and 6.04E-01 and 4.91E-01
same,"normalised signal, dose-response point (Fig 4d)",[4]; Log[inhibitor] (M) -7.149,6.76E-01 and 6.99E-01 and 6.39E-01
same,"normalised signal, dose-response point (Fig 4d)",[4]; Log[inhibitor] (M) -7.447,8.48E-01 and 8.28E-01 and 9.00E-01
same,"normalised signal, dose-response point (Fig 4d)",[4]; Log[inhibitor] (M) -7.755,9.14E-01 and 8.69E-01 and 1.05E+00
same,"normalised signal, dose-response point (Fig 4d)",[4]; Log[inhibitor] (M) -8.041,9.90E-01 and 1.01E+00 and 9.87E-01
same,"normalised signal, dose-response point (Fig 4d)",[4]; Log[inhibitor] (M) -8.372,1.02E+00 and 1.03E+00 and 9.36E-01
same,"normalised signal, dose-response point (Fig 4d)",[4]; Log[inhibitor] (M) -8.615,9.70E-01 and 1.01E+00 and 1.11E+00
same,"normalised signal, dose-response point (Fig 4d)",[4]; Log[inhibitor] (M) -8.916,9.07E-01 and 1.05E+00 and 9.01E-01
same,"normalised signal, dose-response point (Fig 4d)",[4]; Log[inhibitor] (M) -9.217,9.78E-01 and 9.88E-01 and 9.92E-01
same,normalized TR-FRET signal (dose-response replicates),[4]; Log[inhibitor] (M) -5.041,4.56E-02 and 1.07E-02 and 1.68E-02
same,normalized TR-FRET signal (dose-response replicates),[4]; Log[inhibitor] (M) -5.342,5.17E-02 and 5.07E-02 and 8.15E-02
same,normalized TR-FRET signal (dose-response replicates),[4]; Log[inhibitor] (M) -5.642,9.59E-02 and 6.70E-02 and 9.33E-02
same,normalized TR-FRET signal (dose-response replicates),[4]; Log[inhibitor] (M) -5.943,1.49E-01 and 1.16E-01 and 1.17E-01
same,normalized TR-FRET signal (dose-response replicates),[4]; Log[inhibitor] (M) -6.244,2.09E-01 and 2.42E-01 and 2.50E-01
same,normalized TR-FRET signal (dose-response replicates),[4]; Log[inhibitor] (M) -6.555,3.66E-01 and 3.52E-01 and 3.76E-01
same,normalized TR-FRET signal (dose-response replicates),[4]; Log[inhibitor] (M) -6.837,5.21E-01 and 5.37E-01 and 4.85E-01
same,normalized TR-FRET signal (dose-response replicates),[4]; Log[inhibitor] (M) -7.149,7.07E-01 and 6.82E-01 and 6.73E-01
same,normalized TR-FRET signal (dose-response replicates),[4]; Log[inhibitor] (M) -7.447,7.81E-01 and 8.42E-01 and 8.20E-01
same,normalized TR-FRET signal (dose-response replicates),[4]; Log[inhibitor] (M) -7.755,9.07E-01 and 9.27E-01 and 8.91E-01
same,normalized TR-FRET signal (dose-response replicates),[4]; Log[inhibitor] (M) -8.041,9.57E-01 and 9.29E-01 and 9.81E-01
same,normalized TR-FRET signal (dose-response replicates),[4]; Log[inhibitor] (M) -8.372,9.20E-01 and 9.69E-01 and 9.64E-01
same,normalized TR-FRET signal (dose-response replicates),[4]; Log[inhibitor] (M) -8.615,9.77E-01 and 1.00E+00 and 1.02E+00
same,normalized TR-FRET signal (dose-response replicates),[4]; Log[inhibitor] (M) -8.916,9.89E-01 and 9.48E-01 and 9.78E-01
same,normalized TR-FRET signal (dose-response replicates),[4]; Log[inhibitor] (M) -9.217,1.04E+00 (2×) and 1.05E+00
same,"Normalized response, dose-response replicates (SI Fig 14)",[5]; Log[inhibitor] (M) -5.041,4.37E-03 and 8.51E-02 and 8.45E-02
same,"Normalized response, dose-response replicates (SI Fig 14)",[5]; Log[inhibitor] (M) -5.342,1.11E-01 and 8.97E-02 and 2.09E-01
same,"Normalized response, dose-response replicates (SI Fig 14)",[5]; Log[inhibitor] (M) -5.642,2.13E-01 and 1.76E-01 and 2.03E-01
same,"Normalized response, dose-response replicates (SI Fig 14)",[5]; Log[inhibitor] (M) -5.943,2.11E-01 and 3.53E-01 and 2.89E-01
same,"Normalized response, dose-response replicates (SI Fig 14)",[5]; Log[inhibitor] (M) -6.244,5.69E-01 and 4.73E-01 and 4.91E-01
same,"Normalized response, dose-response replicates (SI Fig 14)",[5]; Log[inhibitor] (M) -6.555,6.49E-01 and 6.64E-01 and 6.15E-01
same,"Normalized response, dose-response replicates (SI Fig 14)",[5]; Log[inhibitor] (M) -6.837,7.67E-01 and 7.12E-01 and 8.75E-01
same,"Normalized response, dose-response replicates (SI Fig 14)",[5]; Log[inhibitor] (M) -7.149,8.93E-01 and 9.71E-01 and 9.69E-01
same,"Normalized response, dose-response replicates (SI Fig 14)",[5]; Log[inhibitor] (M) -7.447,1.04E+00 and 1.05E+00 and 9.75E-01
same,"Normalized response, dose-response replicates (SI Fig 14)",[5]; Log[inhibitor] (M) -7.755,9.28E-01 and 9.14E-01 and 8.72E-01
same,"Normalized response, dose-response replicates (SI Fig 14)",[5]; Log[inhibitor] (M) -8.041,1.06E+00 and 9.79E-01 and 1.02E+00
same,"Normalized response, dose-response replicates (SI Fig 14)",[5]; Log[inhibitor] (M) -8.372,9.49E-01 and 9.57E-01 and 1.06E+00
same,"Normalized response, dose-response replicates (SI Fig 14)",[5]; Log[inhibitor] (M) -8.615,1.07E+00 and 9.05E-01 and 1.02E+00
same,"Normalized response, dose-response replicates (SI Fig 14)",[5]; Log[inhibitor] (M) -8.916,1.03E+00 and 9.82E-01 and 1.08E+00
same,"Normalized response, dose-response replicates (SI Fig 14)",[5]; Log[inhibitor] (M) -9.217,9.85E-01 and 1.06E+00 and 9.97E-01
same,PfcProRS -- best Kd,"[5]; SI Fig 16a, values on -log scale",7.445
